Tests used:
[1] = system: MES-induced seizure (full body tonic extension); experiment: Maximal Electroshock Test (MES), anticonvulsant activity; assay type: in vivo, CF-1 male albino mice; conditions: oral; for MES @100 mpk: (number of mice with full body tonic extension prevented)/(total number of mice tested) / MES @100 mpk, result in words: 100 mg/kg; for MES @ 300 mpk: (number of mice with full body tonic extension prevented)/(total number of mice tested): 300 mg/kg; for MES @100 mpk, result in words: mice, time not given
Description: Anticonvulsant activity was determined using the MES test, run according to the procedure described in detail below. Swinyard E A, Woodhead J H, White H S, Franklin M R. Experimental selection, quantification, and evaluation of anticonvulsants. In Levy R H, et al., eds. Antiepileptic Drugs. 3rd ed. New York: Raven Press, 1989:85-102 CF-1 male albino mice (25-35 g) were fasted for 16 hours before testing. Mice were randomly selected into control and test groups, with the animals dosed with vehicle or test compound, at varying concentrations, respectively. On the study date, at 30 minutes prior to shock, the mice were orally dosed with vehicle (0.5% methylcellulose) or test compound (100-300 mg/kg). Seizures were induced by trans-corneal electric shock using a 60-Hz alternating current, 50 mA, delivered for 0.2 sec. The mice in the test groups were subjected to electrical stimulus at time intervals between 15 minutes and 4 hours following administration of test compound. […] The test was complete when the entire course of the convulsion has been observed (typically, less than 1 minute after electrical stimulation), and the mice were then immediately euthanized by carbon dioxide inhalation. Abolition of the full body tonic extensor component of the seizure was taken as the endpoint of the test. […] The ED50 value of the test compound (calculated when appropriate) was the calculated dose required to block the hind limb tonic-extensor component of the MES-induced seizure in 50% of the rodents tested. A probit analysis was used to calculate the ED50 and 95% fiducial limits (FL). Representative compounds of the present invention were tested according to the procedure described above, with results as listed in Table 6 below. Results are listed as (number of mice with full body tonic extension prevented)/(total number of mice tested) (@ a given time).

carbonic anhydrase = conditions: background statement, figure not given; cited from earlier work

Compound | MES @100 mpk: (number of mice with full body tonic extension prevented)/(total number of mice tested) ([1]; 0.5 h after dosing) | MES @100 mpk: (number of mice with full body tonic extension prevented)/(total number of mice tested) ([1]; 2 h after dosing) | MES @100 mpk: (number of mice with full body tonic extension prevented)/(total number of mice tested) ([1]; 4 h after dosing) | MES @ 300 mpk: (number of mice with full body tonic extension prevented)/(total number of mice tested) ([1]; 0.5 hr after dosing) | MES @ 300 mpk: (number of mice with full body tonic extension prevented)/(total number of mice tested) ([1]; 2 hr after dosing) | MES @ 300 mpk: (number of mice with full body tonic extension prevented)/(total number of mice tested) ([1]; 4 hr after dosing) | MES @100 mpk, result in words [1] | carbonic anhydrase inhibition (carbonic anhydrase)
Cc1oc2ccccc2c1CNS(N)(=O)=O [Compound 13] | 4/5 (0.5 h) | 0/5 (2 h) | 0/5 (4 h) | – | – | – | – | –
NS(=O)(=O)NCc1csc2ccccc12 [Compound 1, N-(benzo[b]thien-3-ylmethyl)-sulfamide] | 1/5 (0.5 h) | 3/5 (2 h) | 2/5 (4 h) | – | – | – | – | –
NS(=O)(=O)NCc1csc2ccc(Br)cc12 [Compound 15, N-[(5-bromobenzo[b]thien-3-yl)methyl]-sulfamide] | – | – | – | 0/3 (0.5 hr) | 0/3 (2 hr) | 1/3 (4 hr) | – | –
NS(=O)(=O)NCc1coc2ccccc12 [Compound 6, N-(3-benzofuranylmethyl)-sulfamide] | – | – | – | 5/5 (0.5 hr) | 0/5 (2 hr) | 0/5 (4 hr) | inactive | –
Cn1cc(CNS(N)(=O)=O)c2ccccc21 [Compound 7, N-[(1-methyl-1H-indol-3-yl)methyl]-sulfamide] | – | – | – | 5/5 (0.5 hr) | 0/5 (2 hr) | 0/5 (4 hr) | inactive | –
NS(=O)(=O)NCc1csc2ccc(Cl)cc12 [Compound 3, N-[(5-chlorobenzo[b]thien-3-yl)methyl]-sulfamide] | – | – | – | 0/5 (0.5 hr) | 3/5 (2 hr) | 1/5 (4 hr) | inactive | –
NS(=O)(=O)NCc1csc2cccc(Br)c12 [Compound 17, N-[(4-bromobenzo[b]thien-3-yl)methyl]-sulfamide] | – | – | – | 0/3 (0.5 hr) | 0/3 (2 hr) | 1/3 (4 hr) | – | –
NS(=O)(=O)NCc1csc2c(F)cccc12 [Compound 18, N-[(7-fluorobenzo[b]thien-3-yl)methyl]-sulfamide] | – | – | – | 0/3 (0.5 hr) | 2/3 (2 hr) | 0/3 (4 hr) | – | –
CC1(C)O[C@@H]2[C@@H](CO[C@@]3(COS(N)(=O)=O)OC(C)(C)O[C@@H]23)O1 [Topiramate] | – | – | – | – | – | – | – | single digit micromolar
NS(=O)(=O)NCc1csc2ccc(F)cc12 [Compound 8, N-[(5-fluorobenzo[b]thien-3-yl)methyl]-sulfamide] | 0/5 (0.5 h) | 4/5 (2 h) | 1/5 (4 h) | – | – | – | – | –
CC(NS(N)(=O)=O)c1csc2ccccc12 (stereo not shown) [Compound 9, N-(1-benzo[b]thien-3-ylethyl)-sulfamide] | 1/5 (0.5 h) | 0/5 (2 h) | 0/5 (4 h) | – | – | – | – | –
NS(=O)(=O)NCc1cccc2ccccc12 [Compound 10, N-(1-naphthalenylmethyl)-sulfamide] | 2/5 (0.5 h) | 1/5 (2 h) | 0/5 (4 h) | – | – | – | – | –
